The target of data set [1] is T1, recombinant human KLK5 (Homo sapiens, UniProt Q9Y337).
T1 construct: purchased R & D Systems Inc
T1 sequence (Q9Y337 23-293): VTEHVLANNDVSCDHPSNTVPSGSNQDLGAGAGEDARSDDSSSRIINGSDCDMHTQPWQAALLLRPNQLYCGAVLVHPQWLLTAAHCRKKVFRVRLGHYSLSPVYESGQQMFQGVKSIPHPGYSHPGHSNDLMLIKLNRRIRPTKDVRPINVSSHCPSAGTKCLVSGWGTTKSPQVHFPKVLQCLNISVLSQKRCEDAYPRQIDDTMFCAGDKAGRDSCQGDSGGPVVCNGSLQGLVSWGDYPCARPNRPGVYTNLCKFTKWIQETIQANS
In words: KLK5 enzymatic assay (Boc-V-P-R-AMC fluorogenic substrate). Type of data set: biochemical. The note with it: for IC50: dose-response experiment of Figure 2, read-out: IC50 anti-KLK5 activity.

A short description of data set [2]: Plasma pharmacokinetics of triterpenoids in rats after oral Jumihaidokuto (LC-MS/MS). Type of data set: in vivo. As to conditions: rat, single oral Jumihaidokuto 2 g/10 mL/kg. Here is the method:
Male Sprague–Dawley rats were purchased from Charles River Laboratories (Yokohama, Japan). The plasma pharmacokinetic study was performed according to the “Guidelines for the Care and Use of Laboratory Animals” of Tsumura & Co. Ethical approval for experimental procedures was obtained from the Laboratory Animal Committee of Tsumura & Co. Jumihaidokuto (JHT, Lot No. 332031900) was supplied by Tsumura & Co. (Tokyo, Japan) in the form of a powdered extract. JHT prepared in distilled water was orally administered to 16-h fasted rats at 2 g/10 mL/kg (n = 3). […] Plasma was obtained by centrifugation at 1700 g for 15 min at 4 °C and stored at −80 °C until further processing. […] Twenty-five microliters of methanol, an equal volume of atropine (2 ng/mL; Wako Pure Chemical Industries) as internal standard, and 750 µL of methanol were added to 200 µL of plasma samples, followed by mixing and centrifugation (7000× g, 5 min). For the preparation of the calibration curve, the same volumes of various concentrations of working solution were used instead of methanol. The supernatant was dried at 40 °C under a stream of nitrogen gas. The dried residue was dissolved in 50–60 μL of the initial mobile phase used for liquid chromatography–mass spectrometry with a tandem mass spectrometry system (LC-MS/MS; API4000 or Triple Quad 6500; AB Sciex, Tokyo, Japan) and then a 10- or 20-μL portion was injected into the LC-MS/MS system for the quantification of triterpenoids.

Data set [3] has as its target T2, recombinant human pro-chymotrypsin C activated by trypsin (Chymotrypsin C) (Homo sapiens, UniProt Q99895).
T2 construct: purchased R & D Systems Inc
In words: Chymotrypsin C enzymatic assay (Suc-A-A-P-F-AMC). Type of data set: biochemical. The procedure:
KLK5, KLK7, trypsin, and chymotrypsin C activities were evaluated according to the following methods supplied by R & D Systems Inc. (Minneapolis, MN, USA). The enzyme activity-dependent increase in the relative fluorescent unit (RFU) was measured, and the percentage of inhibition was calculated based on the formula: (1 − (A − B)/(C − B)) × 100, where A = RFU of test samples with enzymes, B = basal RFU without enzymes, and C = RFU of vehicle controls with enzymes. […] Activated chymotrypsin C (final 34.7 nM) was preincubated with test samples for 5 min, followed by the addition of peptide substrate. After incubating for 60 min, RFU was measured at Ex 380 nm/Em 460 nm.

Data set [4] has as its system LL-37 production in normal human epidermal keratinocytes (NHEKs). Type of data set: cell-based. As to conditions: ursolic acid 0.5 and 5 μM, tumulosic acid 1 and 10 μM; 23 h; in the presence of 10 μM cycloheximide.
Data set [5] concerns recombinant human trypsin. In words: Trypsin enzymatic assay (Boc-V-P-R-AMC). The note with it: for IC50: 0.78-100 μM, linear interpolation. Type of data set: biochemical. The procedure: KLK5, KLK7, trypsin, and chymotrypsin C activities were evaluated according to the following methods supplied by R & D Systems Inc. (Minneapolis, MN, USA). The enzyme activity-dependent increase in the relative fluorescent unit (RFU) was measured, and the percentage of inhibition was calculated based on the formula: (1 − (A − B)/(C − B)) × 100, where A = RFU of test samples with enzymes, B = basal RFU without enzymes, and C = RFU of vehicle controls with enzymes.
To measure the trypsin activity, enzymatic reaction was performed at room temperature in 100 mM NaH2PO4 buffer (pH 8.0) containing 0.25 μg/mL recombinant human trypsin (Wako Pure Chemical Industries), 100 μM of Boc-V-P-R-AMC Fluorogenic Peptide Substrate, and 1.1% DMSO at final concentrations. […] was preincubated with test samples for 5 min, followed by the addition of peptide substrate. After incubating for 1 min, RFU was measured at Ex 380 nm/Em 460 nm. Leupeptin hemisulfate (42.1 μM) was used as a positive control.

The mark [6] stands for this setting: 10 μM test compound, KLK5 8.1 nM, substrate 100 μM, mean ± SEM of triplicate.
Where [7] appears, read: 10 μM test compound, KLK5 8.1 nM, substrate 100 μM, mean ± SEM of triplicate, read-out: Anti-KLK5 Activity % Inhibition.

Read-outs that look alike come from different tables or passages of the source.

T2 sequence (Q99895 30-268, other chains not shown): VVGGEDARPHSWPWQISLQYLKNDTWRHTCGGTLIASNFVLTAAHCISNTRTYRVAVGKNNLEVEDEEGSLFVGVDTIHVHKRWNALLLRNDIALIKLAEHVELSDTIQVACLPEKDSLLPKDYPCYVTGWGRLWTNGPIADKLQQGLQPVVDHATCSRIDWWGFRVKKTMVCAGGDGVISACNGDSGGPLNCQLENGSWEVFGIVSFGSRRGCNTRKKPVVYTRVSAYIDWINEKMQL

`CC1(C(=O)O)CCC2(C)CCC3(C)C(=CC(=O)C4C5(C)CCC(O)C(C)(C)C5CCC43C)C2C1` (stereo not drawn) [18β-Glycyrrhetinic acid]: the inhibition at 30 µM in data set [1] (30 μM, KLK5 8.1 nM, substrate 100 μM, mean ± SEM of triplicate, read-out: Anti-KLK5 Activity % Inhibition) came out at 16 ± 1.2%.

Turning to `C=C(C)[C@@H]1CC[C@]2(C(=O)O)CC[C@]3(C)[C@H](CC[C@@H]4[C@@]5(C)CC[C@H](O)C(C)(C)[C@@H]5CC[C@]43C)[C@@H]12` [Betulinic acid], the “Anti-KLK5 Activity % Inhibition” value in data set [1] (setting [6]) is “did not influence the KLK5 activity”. For the same molecule, the inhibition at 10 µM in data set [1] (setting [7]) turned out to be 5.5 ± 2.5%.

For `C=C(CC[C@@H](C(=O)O)C1[C@H](O)C[C@@]2(C)C3=CCC4C(C)(CCC(OC(C)=O)C4(C)C)C3=CCC12C)C(C)C` (stereo partly shown) [Dehydropachymic acid], in data set [1] (setting [7]), the inhibition at 10 µM was found to be 33.9 ± 3.7%.

`C=C(CC[C@@H](C(=O)O)[C@H]1[C@H](O)C[C@@]2(C)C3=CC[C@H]4C(C)(C)[C@@H](O)CC[C@]4(C)C3=CC[C@]12C)C(C)C` [Dehydrotumulosic acid]: in data set [1] (setting [7]), the inhibition at 10 µM is -46.2 ± 2.7%.

On to `C[C@@H]1C[C@H]2[C@@H]3CCC4=CC(=O)C=C[C@]4(C)[C@@]3(F)[C@@H](O)C[C@]2(C)[C@@]1(O)C(=O)CO` [Dexamethasone, reference compound], for which the “Anti-KLK5 Activity % Inhibition” value in data set [1] (setting [6]) is listed as “did not influence the KLK5 activity”. In addition, the inhibition at 10 µM in data set [1] (setting [7]) is -1.8 ± 2.8%.

In the case of `C=C(CC[C@@H](C(=O)O)[C@H]1CC[C@@]2(C)C3=C(CC[C@]12C)[C@@]1(C)CC[C@H](O)C(C)(C)[C@@H]1CC3)C(C)C` [Eburicoic acid], the inhibition at 10 µM in data set [1] (setting [7]) is -51 ± 3%.

Take `CC(=O)N[C@@H](CC(C)C)C(=O)N[C@@H](CC(C)C)C(=O)N[C@H](C=O)CCCN=C(N)N.CC(=O)N[C@@H](CC(C)C)C(=O)N[C@@H](CC(C)C)C(=O)N[C@H](C=O)CCCN=C(N)N.O=S(=O)(O)O` [Leupeptin hemisulfate, reference compound]: the “Anti-KLK5 Activity % Inhibition” value in data set [1] (42.1 μM (positive control), KLK5 8.1 nM, mean ± SEM of triplicate) is 96.9 ± 0.1%; in data set [1] (42.1 μM (positive control), KLK5 8.1 nM, mean ± SEM of triplicate, listed as leupeptin hemisulfate), “completely inhibited”.

In the case of `CC1(C)CC[C@]2(C(=O)O)CC[C@]3(C)C(=CC[C@@H]4[C@@]5(C)CC[C@H](O)C(C)(C)[C@@H]5CC[C@]43C)[C@@H]2C1` [Oleanolic acid], the IC50 in data set [1] turned out to be 6.4 µM.

In data set [2] (male, Sprague-Dawley, plasma, 2 g/kg), `C=C(CC[C@@H](C(=O)O)[C@H]1[C@H](O)C[C@@]2(C)C3=C(CC[C@]12C)[C@@]1(C)CC[C@H](OC(C)=O)C(C)(C)[C@@H]1CC3)C(C)C` [Pachymic acid] gave a Cmax of 2.1 ng/mL. In data set [2], the “time of Cmax” value is on record as 6 h. Moreover, the inhibition at 10 µM in data set [1] (setting [7]) was determined as 56.2 ± 1.5%. Besides, the concentration for half-maximal inhibition (IC50) in data set [1] was 5.9 µM.

Consider `CC1(C)CCC2(C(=O)O)C(C1)C1=CCC3C4(C)CC(O)C(O)C(CO)(CO)C4CCC3(C)[C@]1(C)C[C@H]2O` (stereo partly shown) [Platycodigenin], for which the inhibition at 10 µM in data set [1] (setting [7]) came to 8.8 ± 2%.

`C[C@@H]1O[C@@H](O[C@H]2[C@H](OC(=O)[C@]34CCC(C)(C)C[C@H]3C3=CC[C@@H]5[C@@]6(C)C[C@H](O)[C@H](O[C@@H]7O[C@H](CO)[C@@H](O)[C@H](O)[C@H]7O)C(CO)(CO)[C@@H]6CC[C@@]5(C)[C@]3(C)C[C@H]4O)OC[C@H](O)[C@@H]2O)[C@H](O)[C@H](O)[C@H]1O[C@@H]1OC[C@@H](O)[C@H](O[C@@H]2OC[C@](O)(CO)[C@H]2O)[C@H]1O` [Platycodin D]: the inhibition at 10 µM in data set [1] (setting [7]) was -6 ± 2.9%.

Consider `CC1(C)CCC2(C(=O)O)C(O)CC3(C)C(=CCC4C5(C)CC(O)C(O)C(C)(CO)C5CCC43C)C2C1` (stereo not shown) [Polygalacic acid], for which the “Anti-KLK5 Activity % Inhibition” value in data set [1] (setting [6]) is given as “did not influence the KLK5 activity”. Also, the inhibition at 10 µM in data set [1] (setting [7]) came to 5.5 ± 2.3%.

Regarding `CC1(C)CCC2(CO)C(=C3C=CC4C5(C)CCC(O)C(C)(CO)C5CCC4(C)C3(C)CC2O)C1` (stereo not shown) [Saikogenin A], in data set [1] (setting [6]), the “Anti-KLK5 Activity % Inhibition” value is 24.3 ± 2.6%.

For `CC1(C)CCC2(CO)C(=C3C=CC4C5(C)CCC(O)C(C)(CO)C5CCC4(C)C3(C)CC2O)C1` (stereo not shown) [Saikogenin D], the “Anti-KLK5 Activity % Inhibition” value in data set [1] (setting [6]) was −1.5 ± 3.6%.

`C[C@H]1O[C@@H](O[C@H]2CC[C@@]3(C)[C@@H](CC[C@]4(C)[C@@H]3C=C[C@]35OC[C@@]6(CCC(C)(C)C[C@H]63)[C@@H](O)C[C@]54C)[C@]2(C)CO)[C@H](O)[C@@H](O[C@@H]2O[C@H](CO)[C@@H](O)[C@H](O)[C@H]2O)[C@H]1O` [Saikosaponin a]: the inhibition at 10 µM in data set [1] (setting [7]) is 4.3 ± 0.7%.

As to `C[C@H]1O[C@@H](O[C@H]2CC[C@@]3(C)[C@@H](CC[C@]4(C)[C@@H]3C=CC3=C5CC(C)(C)CC[C@]5(CO)[C@@H](O)C[C@]34C)[C@]2(C)CO)[C@H](O)[C@@H](O[C@@H]2O[C@H](CO)[C@@H](O)[C@H](O)[C@H]2O)[C@H]1O` [Saikosaponin b1], the inhibition at 10 µM in data set [1] (setting [7]) turned out to be 39.6 ± 1.6%. Also, the half-inhibitory concentration (IC50) in data set [1] was 14.4 µM.

For the molecule `CC1OC(OC2CCC3(C)C(CCC4(C)C3C=CC3=C5CC(C)(C)CCC5(CO)C(O)CC34C)C2(C)CO)C(O)C(OC2OC(CO)C(O)C(O)C2O)C1O` (stereo not shown) [Saikosaponin b2], in data set [1] (setting [6]), the “Anti-KLK5 Activity % Inhibition” value was determined as 21.1 ± 1.4%.

`CC1OC(OC2C(COC3OC(CO)C(O)C(O)C3O)OC(OC3CCC4(C)C(CCC5(C)C4C=CC46OCC7(CCC(C)(C)CC74)[C@@H](O)C[C@@]56C)C3(C)C)C(O)C2O)C(O)C(O)C1O` (stereo partly shown) [Saikosaponin c]: the inhibition at 10 µM in data set [1] (setting [7]) came out at 4.1 ± 1.6%.

Regarding `CC1OC(OC2CCC3(C)C(CCC4(C)C3C=CC35OCC6(CCC(C)(C)CC63)C(O)CC45C)C2(C)CO)C(O)C(OC2OC(CO)C(O)C(O)C2O)C1O` (stereo not shown) [Saikosaponin d], the inhibition at 10 µM in data set [1] (setting [7]) was -10.4 ± 3.5%.

On to `C[C@H]1[C@H](C)CC[C@]2(C(=O)O)CC[C@]3(C)C(=CC[C@@H]4[C@@]5(C)CC[C@H](O)C(C)(C)[C@@H]5CC[C@]43C)[C@H]12` [Ursolic acid], for which, in data set [3] (100 μM), the inhibition at 100 µM came to 35.3 ± 2.9%. Also, the half-maximal inhibitory concentration (IC50) in data set [3] (0.78-100 μM, linear interpolation) was > 100 µM; in data set [5] (listed as Ursolic Acid), 14.8 µM; in data set [5] (listed as ursolic acid), 10.5 µM. In addition, the “amount of LL-37 in NHEK lysates” value in data set [4] is listed as “decreased”. In addition, the inhibition at 10 µM in data set [1] (read-out: Anti-KLK5 Activity % Inhibition) came out at 54.6 ± 1.3%. In data set [5] (100 μM), the “Inhibition % at 100 μM, Trypsin” value was found to be 76.9 ± 3.5%.

As a reminder, the inhibition is the relative decrease from the control value, in per cent. A word on the IC50: it is the concentration that inhibits the measured activity by half. For orientation: Cmax means the highest concentration seen after dosing.
